Reference: patent US12365687B2 (Hoffmann-La Roche Inc., priority 2021, dated 2025)

Tests used:
[1] = target: human GABAA α5β2γ1 receptor (Homo sapiens (Human), UniProt P31644+Q8N1C3); assay: Radioligand binding assay for γ1-containing GABAA subtypes, [3H]RO7239181 competition (α5β2γ1)
Protocol: (§1) The affinity of compounds at GABAA γ1 subunit-containing receptors was measured by competition for [^3H]RO7239181 (67.3 Ci/mmol; Roche) binding to membranes from HEK293F cells (ThermoFisher R79007) expressing human (transiently transfected) receptors of composition α5β2γ1, α2β2γ1, α1β2γ1.
(§2) Harvested pellets from HEK293F cells expressing the different GABAA receptor subtypes were resuspended in Mannitol Buffer pH 7.2-7.4 (Mannitol 0.29 M, Triethylamine 10 mM, Acetic acid 10 mM, EDTA 1 mM plus protease inhibitors (20 tablets Complete, Roche Diagnostics Cat. No. 05 056 489 001 per liter)), washed two times and then resuspended at 1:10 to 1:15 dilution in the same buffer. Cell disruption was performed by stirring the suspension in a Parr vessel #4637 at 435 psi for 15 minutes, and then the suspensions were centrifuged at 1000×g for 15 minutes at 4° C. (Beckman Avanti J-HC; rotor JS-4.2). The supernatant (S1) was transferred in a 2 l Schott flask and the pellet (P1) was resuspended with Mannitol Buffer up to 175 ml. The resuspended pellet was transferred into a 250 ml Corning centrifugal beaker and centrifuged at 1500×g for 10 minutes at 4° C. (Beckman Avanti J-HC; rotor JS-4.2). The supernatant (S1) was then transferred in the 2 l Schott flask and the pellet was discarded. The supernatants (S1) were centrifuged in 500 ml Beckman polypropylene centrifugal beaker at 15′000×g for 30 minutes at 4° C. (Beckman Avanti J-20 XP; rotor JLA-10.500). The pellet (P2) was resuspended with Mannitol Buffer 1:1 and frozen at −80° C. The supernatant (S2) was centrifuged in 100 ml Beckman polypropylene centrifugal tubes at 48000×g for 50 minutes at 4° C. (Beckman Avanti J-20 XP; rotor JA-18). The supernatant (S3) was discarded and the pellet (P3) was resuspended with 1:1 Mannitol Buffer. The P2 and P3 protein concentration was determined with the BIORAD Standard assay method with bovine serum albumin as standard and measured on the NANO-Drop 1000. The membrane suspension was aliquots (500 μl per tube) and stored at −80° C. until required.
(§3) Membrane homogenates were resuspended and polytronised (Polytron PT1200E Kinematica AG) in Potassium Phosphate 10 mM, KCl 100 mM binding buffer at pH 7.4 to a final assay concentration determined with a previous experiment.
(§4) Assays were incubated to equilibrium for 1 hour at 4° C. and then, membranes were filtered onto unifilter (96-well white microplate with bonded GF/C filters preincubated 20-50 minutes in 0.3% Polyethylenimine) with a Filtermate 196 harvester (Packard BioScience) and washed 4 times with cold Potassium Phosphate 10 mM pH 7.4, KCl 100 mM binding buffer. After anhydrousing, filter-retained radioactivity was detected by liquid scintillation counting. Ki values were calculated using Excel-Fit (Microsoft) and are the means of two determinations.

[2] = target: human GABAA α1β3γ2 receptor (Homo sapiens (Human), UniProt P14867+P18507); assay: Radioligand binding assay for γ2-containing GABAA subtypes, [3H]Flumazenil competition (α1β3γ2); conditions: for γ2/γ1 Selectivity Ratio: Ki α1β3γ2 (nM)/Ki α2β2γ1 (nM); for LogSel: Log[Ki α1β3γ2 (nM)/Ki α2β2γ1 (nM)]
Protocol: The affinity of compounds at GABAA γ2 subunit-containing receptors was measured by competition for [^3H]Flumazenil (81.1 Ci/mmol; Roche) binding to HEK293F cells expressing human (transiently transfected) receptors of composition α1β3γ2.
Harvested pellets from HEK293F cells expressing the different GABAA γ2 receptor subtypes were resuspended in Mannitol Buffer pH 7.2-7.4 and processed as described above for the cells expressing the GABAA γ1 subunit-containing receptors.
Assays were incubated to equilibrium for 1 hour at 4° C. and harvested onto GF/C uni-filters (Packard) by filtration using a Packard harvester and washing with ice-cold wash buffer (50 mM Tris; pH 7.5). After anhydrousing, filter-retained radioactivity was detected by liquid scintillation counting. Ki values were calculated using Excel-Fit (Microsoft) and are the means of two determinations.

[3] = target: α2β2γ1 GABAA receptor subtype (Homo sapiens (Human), UniProt P47869+Q8N1C3); assay: Two-electrode voltage clamp electrophysiology in Xenopus oocytes expressing GABAA receptors (modulation of GABA EC20 current); format: cell-based; conditions: for Efficacy (GABA)%: % modulation of GABA EC20 = 100*(Fold increase-1), α2β2γ1 oocytes, compound at approx. 30-fold Ki; for Fold increase h-GABA-A α2β2γ1 oocyte @ 30-fold Ki: Xenopus oocytes expressing α2β2γ1, compound at approx. 30-fold its Ki α2β2γ1, GABA EC20 current; for potentiation of the GABA-induced current: α2β2γ1 GABAA receptor subtype expressing oocytes, GABA EC20
Protocol: Xenopus laevis oocytes at maturation stages V-VI were used for the expression of cloned mRNA encoding GABAA receptor subunits. Oocytes ready for RNA micro-injection were bought from Ecocyte, Castrop-Rauxel, Germany and stored in modified Barth's medium (composition in mM: NaCl 88, KCl 1, NaHCO3 2.4, HEPES 10, MgSO4 0.82, CaNO3 0.33, CaCl2 0.33, pH=7.5) at 20° C. until the experiment.
Oocytes were plated in 96-well plates for microinjection using the Roboinject automated instrument (MultiChannelSystems, Reutlingen, Germany). Approximately 50 nL of an aqueous solution containing the RNA transcripts for the subunits of the desired GABAA receptor subtype was injected into each oocyte. […] Oocytes were kept in modified Barth's medium (composition in mM: NaCl 88, KCl 1, NaHCO3 […], HEPES 10, MgSO4 0.82, CaNO3 0.33, CaCl2 0.33, pH=7.5) at 20° C. until the experiment.
Electrophysiological experiments were performed using the Roboocyte instrument (MultiChannelSystems, Reutlingen, Germany) on days 3 to 5 after the micro-injection of mRNA. During the experiment the oocytes were constantly superfused by a solution containing (in mM) NaCl 90, KCl 1, HEPES 5, MgCl2 1, CaCl2 1 (pH 7.4). Oocytes were impaled by two glass microelectrodes (resistance: 0.5-0.8 MΩ) which were filled with a solution containing KCl 1M+K-acetate 1.5 M and voltage-clamped to −80 mV. The recordings were performed at room temperature using the Roboocyte two-electrode voltage clamp system (Multichannelsystem). After an initial equilibration period of 1.5 min GABA was added for 1.5 min at a concentration evoking approximately 20% of a maximal current response (EC20). After another rest interval of 2.5 min GABA was again added evoking a response of similar amplitude and shape. […] Current traces were recorded at a digitization rate of 10 Hz during and shortly before and after the GABA application.
Each compound and concentration was tested on at least 3 oocytes. Different oocytes were used for different compound concentrations.
For the analysis, the digitized current traces of the first and second GABA response were superimposed and, if necessary, rescaled to equal maximal amplitudes. The ratio between the two responses during the time interval of test compound application was calculated point by point. The extremum of the resulting “ratio trace” was taken as the efficacy (“Fold increase”) of the compound expressed as “% modulation of GABA EC20” (100*(Fold increase-1)).

[4] = target: human GABAA α2β2γ1 receptor (Homo sapiens (Human), UniProt P47869+Q8N1C3); assay: Radioligand binding assay for γ1-containing GABAA subtypes, [3H]RO7239181 competition (α2β2γ1)
Protocol: as §1, §2, §3, §4

[5] = Ki h-GABAA α2β2γ1, [3H]RO7239181 competition binding, human GABAA α2β2γ1
[6] = Ki h-GABAA α2β2γ1, displacement of [3H]RO7239181, membranes of HEK293F cells expressing human receptors, means of two determinations
[7] = Ki h-GABAA α2β2γ1, Table 3, reference compounds

Row | Structure (SMILES) | Ki [1] | Ki [2] | γ2/γ1 Selectivity Ratio [2] | LogSel [2] | Efficacy (GABA)% [3] | Fold increase h-GABA-A α2β2γ1 oocyte @ 30-fold Ki [3] | Ki [4, 5] | Ki [4, 6] | LogSel ([2]; Table 3) | potentiation of the GABA-induced current [3] | γ2/γ1 Selectivity Ratio ([2]; Table 3) | Ki [4, 7]
1 | C[C@@H]1N=C(c2c(F)cccc2F)c2c(ccc(C(F)(F)F)c2Cl)-n2nc(NC(=O)N3C4COCC3C4)nc21 (single isomer, unassigned) [Example 130] | 0.0069 µM | 4.19 µM | 114.5 | 2.06 | 116% | 2.16 | 0.0366 µM | 0.0366 µM | – | – | – | –
2 | C[C@@H]1N=C(c2c(F)cccc2F)c2c(ccc(C(F)(F)F)c2Cl)-n2nc(NC(=O)N3C4CC3CS(=O)(=O)C4)nc21 (single isomer, unassigned) [Example 134] | 0.00236 µM | 1.48 µM | 76.7 | 1.88 | 101% | 2.01 | 0.0193 µM | 0.0193 µM | – | – | – | –
3 | Cc1nnc2n1-c1ccc(Cl)cc1C(c1ccccc1)=NC2 [Alprazolam, reference compound] | – | – | – | – | – | – | – | – | −2.3 | – | – | –
4 | COC1CN(C(=O)c2cn3c(n2)CN=C(c2c(F)cccc2F)c2c-3ccc(Cl)c2Cl)C1 [Example 2, (7,8-dichloro-6-(2,6-difluorophenyl)-4H-benzo[f]imidazo[1,2-a][1,4]diazepin-2-yl)(3-methoxyazetidin-1-yl)methanone] | 0.00126 µM | 0.255 µM | 39.3 | 1.59 | 42% | 1.42 | 0.0065 µM | 0.0065 µM | – | – | – | –
5 | Fc1cccc(F)c1C1=NCc2nc(C(F)F)cn2-c2ccc(Br)c(Cl)c21 [Example 3, 8-bromo-7-chloro-2-(difluoromethyl)-6-(2,6-difluorophenyl)-4H-benzo[f]imidazo[1,2-a][1,4]diazepine] | 0.00128 µM | 0.455 µM | 15.0 | 1.18 | – | – | 0.0302 µM | 0.0302 µM | – | – | – | –
6 | OCc1cn2c(n1)CN=C(c1c(F)cccc1F)c1c-2ccc(Br)c1Cl [Example 4, (8-bromo-7-chloro-6-(2,6-difluorophenyl)-4H-benzo[f]imidazo[1,2-a][1,4]diazepin-2-yl)methanol] | 0.00114 µM | 0.216 µM | 24.4 | 1.39 | 105% | 2.05 | 0.0088 µM | 0.0088 µM | – | – | – | –
7 | COCc1cn2c(n1)CN=C(c1c(F)cccc1F)c1c-2ccc(Cl)c1Cl [Example 5, 7,8-dichloro-6-(2,6-difluorophenyl)-2-(methoxymethyl)-4H-benzo[f]imidazo[1,2-a][1,4]diazepine] | 0.0012 µM | 0.307 µM | 31.9 | 1.50 | 78% | 1.78 | 0.0096 µM | 0.0096 µM | – | – | – | –
8 | C[C@@H]1N=C(c2c(F)cccc2F)c2c(ccc(C(F)(F)F)c2Cl)-n2nc(C(=O)N3CC(OC(F)F)C3)nc21 [Example 51, [3-(difluoromethoxy)azetidin-1-yl]-[(4S)-7-chloro-6-(2,6-difluorophenyl)-4-methyl-8-(trifluoromethyl)-4H-[1,2,4]triazolo[1,5-a][1,4]benzodiazepin-2-yl]methanone] | – | 1.56 µM | 53.3 | 1.73 | – | – | – | – | – | – | – | –
9 | C[C@@H]1N=C(c2ncccc2F)c2c(ccc(C(F)(F)F)c2Cl)-n2nc(C(=O)NCCF)nc21 [Example 152, (4S)-7-chloro-N-(2-fluoroethyl)-6-(3-fluoro-2-pyridyl)-4-methyl-8-(trifluoromethyl)-4H-[1,2,4]triazolo[1,5-a][1,4]benzodiazepine-2-carboxamide] | 0.0204 µM | > 30 µM | 333.7 | 2.52 | – | – | 0.0899 µM | 0.0899 µM | – | – | – | –
10 | CN1C(=O)CN=C(c2ccccc2F)c2cc([N+](=O)[O-])ccc21 [Flunitrazepam, reference compound] | – | – | – | – | – | – | – | – | – | ~60% | – | –
11 | Cc1ncc2n1-c1ccc(Cl)cc1C(c1ccccc1F)=NC2 [Midazolam, reference compound] | – | – | – | – | – | – | – | – | −2.2 | ~60% | – | –
12 | CN(C)C(=O)c1nc2n(n1)-c1ccc(Cl)cc1C(c1ccccc1F)=NC2 [RE-A, reference compound] | – | 0.0356 µM | – | – | – | – | – | – | – | – | 0.13 | 0.276 µM
13 | CCOC(=O)c1nc2n(n1)-c1ccc(Cl)cc1C(c1ccccc1F)=NC2 [RE-B, reference compound] | – | 0.0034 µM | – | – | – | – | – | – | – | – | 0.18 | 0.0184 µM
14 | Cc1nnc2n1-c1ccc(Cl)cc1C(c1ccccc1Cl)=NC2 [Triazolam, reference compound] | – | – | – | – | – | – | – | – | −1.5 | ~60% | – | –
